US20090029992A1, “SUBSTITUTED PYRAZOLE COMPOUNDS” (priority 2007, published 2009)

Tests used:
HCT116 cells = assay: Whole cell cytotoxicity assay, Sulforhodamine B; format: cell-based; settings: Homo sapiens, HCT-116; HCT116, 96 hours incubation, SRB; read-out: IC50 values in this assay (HCT116 cell growth)
Procedure: Human tumor-derived cell lines, HCT116 or MCF7 (ATCC) were plated in a 96 well plate in DMEM containing 10% fetal bovine serum and 2 mM L-glutamine at a density of 500 HCT116 cells or 1,000 MCF7 cells per well and incubated at 37° C., 5% CO2, for 24 hours prior to the addition of experimental compounds. Compounds were added using the dilution series indicated to duplicate plates and the cells were incubated in media plus compound for 96 hours. An additional plate was fixed in 10% TCA at the time of the addition of compound to provide a measurement of the cell population at time zero, the time of drug addition. Following the 96 hour incubation, cells were fixed in situ by gently aspirating off the culture media and then adding 50 ul of ice cold 10% TCA per well and incubation at 4° C. for 60 minutes. The plates were washed with tap water five times and allowed to air dry for 5 minute. 50 ul of a 0.4% (w/v) Sulforhodamine B solution in 1% (v/v) acetic acid was added per well and the cells were incubated for 30 minutes at room temperature. Following staining, plates were washed four times with 1% acetic acid to remove any unbound dye and then allowed to air dry for 5 minutes. The stain was solubilized with 100 ul of 10 mM Tris pH 10.5 per well and placed on an orbital rotator for 5 minutes. The absorbance was read at 570 nm. Percentage growth was calculated using the absorbance readings from the time zero plate (Tz) and the dilution series plate […] which included a column of cells grown in media without compound as a control (C) using the formulas:
[(Ti−Tz)/(C−Tz)]×100 for concentrations for which Ti>/=Tz
[(Ti−Tz)/Tz]×100 for concentrations for which Ti<Tz.
Three dose response parameters were calculated for each experimental agent. Growth inhibition of 50% (GI50) was calculated from [(Ti−Tz)/(C−Tz)]×100=50, which was the drug concentration resulting in a 50% reduction in the net protein increase (as measured by SRB staining) in control cells during the drug incubation. The drug concentration resulting in total growth inhibition (TGI) was calculated from Ti=Tz. The LC50 (concentration of drug resulting in a 50% reduction in the measured protein at the end of the drug treatment as compared to that at the beginning) indicating a net loss of cells following treatment ws calculated from [(Ti−Tz)/Tz]×100=−50. Values are calculated for each of these three parameters if the level of activity was reached; however, if the effect was not reached or was exceeded, the value for that parameter is expressed as greater or less than the maximum or minimum concentration tested.

[1] = biological target: T1, N-terminal His-tagged human Src (Homo sapiens, UniProt P12931); assay: Src kinase inhibition assay (33P-ATP filter assay); format: biochemical
T1 construct: His (N); purchased Upstate USA Inc, 706 Forest Street, Charlottesville, Va
Procedure: (§1) Compounds were assayed for Src kinase inhibitory activity using N-terminal His-tagged human Src (Upstate USA Inc, 706 Forest Street, Charlottesville, Va.). Serial dilutions of compound were assayed in a final reaction volume of 25 μL by incubating a solution of the above Src kinase (5-10 mU), 8 mM MOPS (3-(N-morpholino) propanesulfonic acid) pH 7.0, 0.2 mM EDTA (ethylenediamine tetracetic acid), 250 μM amino acid sequence KVEKIGEGTYGVVYK (Upstate USA Inc, 706 Forest Street, Charlottesville, Va.), and 10 mM magnesium acetate and [γ-^33P-ATP] (specific activity of about 500 cpm/μmol, concentration as required). The reaction was initiated by the addition of the magnesium acetate and [γ-^33P-ATP] mixture. After incubation for 40 minutes at room temperature, the reaction was stopped by the addition of 5 μL of a 3% phosphoric acid solution. A 10 μL aliquote of the reaction was then spotted onto a P30 filtermat (PerkinElmer, Wellesley, Mass.) and washed three times for five minutes in 75 mM phosphoric acid and once in methanol prior to drying and scintillation counting. Inhibition of Src activity was determined by comparison to assays that contained no inhibitor.

recombinant Aurora A = biological target: T2, recombinant Aurora A (Homo sapiens, UniProt O14965); assay: Aurora A (Aurora 2) inhibition assay, Z'-Lyte kinase assay; format: biochemical; settings: ATP 10 μM, 1 h
T2 construct: purchased Upstate, Lake Placid, N.Y
T2 sequence (O14965 1-403): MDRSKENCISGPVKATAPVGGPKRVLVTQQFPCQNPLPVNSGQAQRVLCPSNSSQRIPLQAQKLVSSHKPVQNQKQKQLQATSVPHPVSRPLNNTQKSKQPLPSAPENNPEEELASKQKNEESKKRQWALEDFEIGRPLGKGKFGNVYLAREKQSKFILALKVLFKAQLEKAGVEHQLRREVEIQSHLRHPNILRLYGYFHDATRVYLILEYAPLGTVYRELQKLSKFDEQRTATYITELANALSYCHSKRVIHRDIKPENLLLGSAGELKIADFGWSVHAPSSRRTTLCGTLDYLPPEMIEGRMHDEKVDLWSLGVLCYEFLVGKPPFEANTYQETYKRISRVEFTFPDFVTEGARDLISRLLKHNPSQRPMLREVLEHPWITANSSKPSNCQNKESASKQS
Procedure: Compounds were tested for their potency against recombinant Aurora A (Upstate, Lake Placid, N.Y.) using the PanVera Z′-Lyte kinase assay kit—Ser/Thr 1 peptide (Invitrogen, Carlsbad, Calif.). Assays were carried out in kinase assay buffer (50 mM HEPES, pH 7.5, 10 mM MgCl2, 5 mM EGTA, 0.05% Brij-35, 2 mM DTT). Test compounds were initially dissolved in DMSO at 100× the highest tested concentration, then serially diluted to 4× test concentrations in kinase assay buffer. Next, Aurora A (final concentration 200-500 ng/mL), Z′-Lyte Ser/Thr 1 peptide (final concentration 2 μM) and ATP (final concentration 10 μM) were added according to the manufacturer's instructions. Assays were carried out in half-area 96-well white polystyrene assay plates (Corning, Corning, N.Y.) in a final volume of 20 μl. The reaction was allowed to proceed for 1 h at room temperature in the dark, at which point the development reagent and stop reagent were added according to the manufacturer's instructions. Coumarin (Ex. 400 nm, Em. 465 nm) and fluorescein (Ex. 400 nm, Em. 565 nm) fluorescence values were measured on a SpectraFluor Plus plate reader (Tecan, Durham, N.C.). The emission ratio (coumarin/fluorescein) was determined and used to calculate the percent phosphorylation for each well. Wells containing substrate but no kinase and wells containing a phosphopeptide control were used to set 0% and 100% phosphorylation values, respectively. Typically 20-40% of the substrate was phosphorylated in wells without inhibitor. Dose-response curves of relative Aurora A activity vs. inhibitor concentration were plotted with Grafit (Erithacus Software, Horley, Surrey, UK).

[2] = biological target: T3, N-terminal His6-tagged recombinant human KDR, residues 790-end (Homo sapiens, UniProt P35968); assay: KDR kinase inhibition assay (33P-ATP filter assay); format: biochemical
T3 construct: recombinant human KDR, residues 790-end; His6 (N); purchased Upstate USA Inc, 706 Forest Street, Charlottesville, Va
Procedure: as §1, with “for KDR” for “for Src”, “N-terminal His6-tagged recombinant” for “N-terminal His-tagged”, “human KDR, residues 790-end” for “human Src”, “above KDR” for “above Src”, “acid), 0.33 mg/mL myelin basic protein” for “acid), 250 μM amino acid sequence KVEKIGEGTYGVVYK”, “of KDR” for “of Src”

[3] = biological target: T4, N-terminal GST-tagged recombinant human Flt3, residues 564-end (Homo sapiens, UniProt P36888); assay: Flt3 kinase inhibition assay (33P-ATP filter assay); format: biochemical; settings: 40 minutes at room temperature
T4 construct: recombinant human Flt3, residues 564-end; GST (N); purchased Upstate USA Inc, 706 Forest Street, Charlottesville, Va
T4 sequence (P36888 564-993 limits assumed): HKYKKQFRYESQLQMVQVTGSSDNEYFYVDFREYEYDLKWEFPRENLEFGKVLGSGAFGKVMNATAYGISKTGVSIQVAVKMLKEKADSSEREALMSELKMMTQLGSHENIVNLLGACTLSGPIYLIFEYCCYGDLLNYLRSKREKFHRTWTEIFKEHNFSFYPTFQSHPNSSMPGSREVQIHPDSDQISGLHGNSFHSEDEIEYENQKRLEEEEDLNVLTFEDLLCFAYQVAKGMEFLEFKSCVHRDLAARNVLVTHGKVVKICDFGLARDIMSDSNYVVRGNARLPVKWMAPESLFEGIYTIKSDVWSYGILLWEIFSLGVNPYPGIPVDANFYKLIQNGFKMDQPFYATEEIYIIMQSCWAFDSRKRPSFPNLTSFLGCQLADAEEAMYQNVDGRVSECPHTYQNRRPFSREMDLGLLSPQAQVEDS
Procedure: Compounds were assayed for Flt3 kinase inhibitory activity using N-terminal GST-tagged recombinant human Flt3, residues 564-end (Upstate USA Inc, 706 Forest Street, Charlottesville, Va.). Serial dilutions of compound were assayed in a final reaction volume of 25 μL by incubating a solution of the above Flt3 kinase (5-10 mU), 8 mM MOPS (3-(N-morpholino) propanesulfonic acid) pH 7.0, 0.2 mM EDTA (ethylenediamine tetracetic acid), 50 μM amino acid sequence EAIYAAPFAKKK (Upstate USA Inc, 706 Forest Street, Charlottesville, Va.), and 10 mM magnesium acetate and [γ-^33P-ATP] (specific activity of about 500 cpm/μmol, concentration as required). The reaction was initiated by the addition of the magnesium acetate and [γ-^33P-ATP] mixture. After incubation for 40 minutes at room temperature, the reaction was stopped by the addition of 5 μL of a 3% phosphoric acid solution. A 10 μL aliquote of the reaction was then spotted onto a P30 filtermat (PerkinElmer, Wellesley, Mass.) and washed three times for five minutes in 75 mM phosphoric acid and once in methanol prior to drying and scintillation counting. Inhibition of Flt3 activity was determined by comparison to assays that contained no inhibitor.

[4] = group with IC50 greater than 100 nM

T1 sequence (P12931 whole entry): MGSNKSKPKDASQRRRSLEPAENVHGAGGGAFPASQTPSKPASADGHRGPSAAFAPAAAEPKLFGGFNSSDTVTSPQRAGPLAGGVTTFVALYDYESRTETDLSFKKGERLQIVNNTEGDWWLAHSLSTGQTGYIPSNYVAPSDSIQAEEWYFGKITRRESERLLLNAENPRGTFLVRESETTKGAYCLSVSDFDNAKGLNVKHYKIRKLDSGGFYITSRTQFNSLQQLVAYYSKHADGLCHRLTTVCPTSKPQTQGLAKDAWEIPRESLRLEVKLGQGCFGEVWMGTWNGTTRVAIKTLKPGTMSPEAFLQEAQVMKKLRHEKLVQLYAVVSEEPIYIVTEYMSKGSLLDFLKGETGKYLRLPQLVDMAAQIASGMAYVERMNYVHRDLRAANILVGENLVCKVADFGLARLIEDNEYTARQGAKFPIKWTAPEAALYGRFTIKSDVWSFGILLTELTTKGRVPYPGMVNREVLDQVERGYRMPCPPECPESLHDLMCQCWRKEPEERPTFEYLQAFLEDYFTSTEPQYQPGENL
T3 sequence (P35968 790-1356 limits assumed): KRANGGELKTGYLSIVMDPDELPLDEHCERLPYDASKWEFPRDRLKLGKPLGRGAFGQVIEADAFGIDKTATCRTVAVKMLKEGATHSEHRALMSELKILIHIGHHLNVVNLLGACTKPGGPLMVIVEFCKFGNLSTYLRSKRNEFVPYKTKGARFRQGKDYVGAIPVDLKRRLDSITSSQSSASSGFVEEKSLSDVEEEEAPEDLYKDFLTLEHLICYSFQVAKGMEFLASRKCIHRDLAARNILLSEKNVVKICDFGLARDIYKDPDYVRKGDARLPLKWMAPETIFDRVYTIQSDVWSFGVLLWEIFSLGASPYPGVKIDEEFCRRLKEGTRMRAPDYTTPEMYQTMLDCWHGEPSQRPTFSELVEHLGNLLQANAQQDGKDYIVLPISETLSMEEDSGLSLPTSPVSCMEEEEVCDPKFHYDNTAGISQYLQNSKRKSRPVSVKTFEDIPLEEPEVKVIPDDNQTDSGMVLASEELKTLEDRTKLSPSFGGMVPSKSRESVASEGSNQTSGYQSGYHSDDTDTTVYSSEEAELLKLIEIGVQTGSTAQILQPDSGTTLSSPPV

Row | SMILES | IC50 [1, 4] | IC50 (recombinant Aurora A) | IC50 [2, 4] | IC50 ([1]; 40 minutes at room temperature) | IC50 [3] | IC50 ([2]; 40 minutes at room temperature) | IC50 (recombinant Aurora A; [4]) | IC50 (HCT116 cells)
1 | Cc1cc(Nc2cc(N3CCN(C)CC3)nc(-c3cccc(O)c3)n2)n[nH]1 [Example 161, 3-(4-(5-methyl-1H-pyrazol-3-ylamino)-6-(4-methylpiperazin-1-yl)pyrimidin-2-yl)phenol] | – | ≤ 100 nM | – | ≤ 100 nM | ≤ 100 nM | ≤ 100 nM | – | –
2 | Cc1cc(Nc2cc(NC3CCOCC3)nc(-c3ccccc3Cl)n2)n[nH]1 [Compound 24, 2-(2-chlorophenyl)-N^4-(5-methyl-1H-pyrazol-3-yl)-N^6-(tetrahydro-2H-pyran-4-yl)pyrimidine-4,6-diamine] | ≤ 1000 nM | – | ≤ 1000 nM | – | – | – | ≤ 1000 nM | –
3 | COCCN(C)c1cc(Nc2cc(C)[nH]n2)nc(-c2cccc(C)c2C)n1 [Example 181, 2-(2,3-dimethylphenyl)-N^4-(2-methoxyethyl)-N^4-methyl-N^6-(5-methyl-1H-pyrazol-3-yl)pyrimidine-4,6-diamine] | ≤ 1000 nM | – | ≤ 1000 nM | – | ≤ 100 nM | – | ≤ 1000 nM | –
4 | CC(=O)Nc1cccc(-c2nc(Nc3cc(C)[nH]n3)cc(N3CCN(C)CC3)n2)c1 [Example 167, N-(3-(4-(5-methyl-1H-pyrazol-3-ylamino)-6-(4-methylpiperazin-1-yl)pyrimidin-2-yl)phenyl)acetamide] | – | ≤ 100 nM | – | ≤ 100 nM | ≤ 100 nM | ≤ 100 nM | – | –
5 | Cc1ccc(C)c(-c2nc(Nc3cc(C)[nH]n3)cc(NC3CCOCC3)n2)c1 [Example 206, 2-(2,5-dimethylphenyl)-N^4-(5-methyl-1H-pyrazol-3-yl)-N^6-(tetrahydro-2H-pyran-4-yl)pyrimidine-4,6-diamine] | ≤ 1000 nM | – | ≤ 1000 nM | – | ≤ 100 nM | – | ≤ 1000 nM | –

Continued, in another order:

Row | IC50 [1, 4] | IC50 (recombinant Aurora A) | IC50 [2, 4] | IC50 ([1]; 40 minutes at room temperature) | IC50 [3] | IC50 ([2]; 40 minutes at room temperature) | IC50 (recombinant Aurora A; [4]) | SMILES | IC50 (HCT116 cells)
6 | ≤ 1000 nM | ≤ 100 nM | ≤ 1000 nM | – | – | – | – | Cc1cc(Nc2cc(NC3CCOCC3)nc(-c3cccc(Cl)c3)n2)n[nH]1 [Compound 23, 2-(3-chlorophenyl)-N^4-(5-methyl-1H-pyrazol-3-yl)-N^6-(tetrahydro-2H-pyran-4-yl)pyrimidine-4,6-diamine] | 1000 to 10000 nM
7 | – | ≤ 100 nM | ≤ 1000 nM | ≤ 100 nM | – | – | – | COc1ccc(-c2nc(Nc3cc(C)[nH]n3)cc(NC3CCOCC3)n2)cc1 [Compound 28, 2-(4-methoxyphenyl)-N^4-(5-methyl-1H-pyrazol-3-yl)-N^6-(tetrahydro-2H-pyran-4-yl)pyrimidine-4,6-diamine] | 1000 to 10000 nM
8 | ≤ 1000 nM | – | ≤ 1000 nM | – | ≤ 100 nM | – | ≤ 1000 nM | Cc1cc(Nc2cc(NC3CCOCC3)nc(-c3cccc4c3OCCO4)n2)n[nH]1 [Compound 129] | –
9 | ≤ 1000 nM | – | – | – | ≤ 100 nM | ≤ 100 nM | ≤ 1000 nM | Cc1cc(Nc2cc(NC3CCOCC3)nc(-c3cccc(C)c3C)n2)n[nH]1 [Example 180, 2-(2,3-dimethylphenyl)-N^4-(5-methyl-1H-pyrazol-3-yl)-N^6-(tetrahydro-2H-pyran-4-yl)pyrimidine-4,6-diamine] | –
